Our source for the IC50 values is patent US8178668B2, “2-aminopyridine kinase inhibitors” (OSI Pharmaceuticals, LLC, priority 2008, dated 2012).

In one assay the target is MET (human) (Homo sapiens, UniProt P08581). Put plainly: MET kinase AlphaScreen assay (Km of ATP). The format is biochemical. Conditions: ATP at Km; at least duplicate experiments. Here is the method: (§1) Person skilled in the art will appreciate that a variety of assay formats may be used to determine the activity of the compounds of this invention. For example, AlphaScreen (Amplified Luminescent Proximity Homogeneous Assay) technology was used with the kinases described below. Assay ATP concentrations for individual kinases are included in the text.
MET (human)—Km of ATP: MET assay is performed in a 384 well assay containing 200 ng/μL biotinylated poly(Glu,Tyr), 0.334 mM vanadate, desired concentration of ATP optimized for the enzyme in assay buffer (50 mM HEPES (pH=7.4), 5 mM MgCl2, 5 mM MnCl2, and 1% glycerol). Desired compound is added in a final concentration of 1% DMSO with control being vehicle of DMSO alone. MET is diluted to the optimized concentration (optimized on a lot-by-lot basis) in an enzyme diluent buffer (50 mM Tris pH=7.4, 1% glycerol, 0.03% Brij35, 0.24 mM EGTA, 1 mM DTT, and 0.003% BSA). Enzyme is added to initiate the reaction and incubated for 60 min at RT. In subdued light, appropriate amount of PT66 donor and acceptor beads (diluted 1:260 from manufacturer's provision in a 25 mM Tris HCl (pH=7.5), 400 mM NaCl, 100 mM EDTA, 0.3% BSA buffer) are added to the wells. The plates, incubated for 1 h, are read on an AlphaQuest plate reader

A further assay concerns the target RON (human) (Homo sapiens, UniProt Q04912). Put plainly: RON kinase AlphaScreen assay (Km of ATP). The note with it: ATP at Km; at least duplicate experiments. The format is biochemical. As to the method: as §1
RON (human)—Km of ATP: RON assay is performed in a 384 well assay containing 200 ng/μL biotinylated poly(Glu,Tyr), 0.334 mM vanadate, desired concentration of ATP optimized for the enzyme in assay buffer (50 mM HEPES (pH=7.4), 12.5 mM MgCl2 and 1% glycerol). Desired compound is added in a final concentration of 1% DMSO with control being vehicle of DMSO alone. RON is diluted to the optimized (on a lot-by-lot basis) concentration in an enzyme diluent buffer (50 mM HEPES pH=7.4, 12.5 mM MgCl2 and 1% glycerol, 0.03% Brij35, 0.3 mM EGTA, lmM DTT, and 0.003% BSA). Enzyme is added to initiate the reaction and incubated for 30 min at RT. In subdued light, appropriate amount of PT66 donor and acceptor beads (diluted 1:260 from manufacturer's provision in a 25 mM Tris HCl (pH=7.5), 200 mM NaCl, 100 mM EDTA, 0.3% BSA buffer) are added to the wells. The plates, incubated for 1 h, are read on an AlphaQuest plate reader.
(Bead proximity is the source of the signal in Alpha formats.)

SMILES strings stand for the structures. Structures can show the parent of a compound that is named as a salt.

Sequence of MET (human) (P08581 25-1390): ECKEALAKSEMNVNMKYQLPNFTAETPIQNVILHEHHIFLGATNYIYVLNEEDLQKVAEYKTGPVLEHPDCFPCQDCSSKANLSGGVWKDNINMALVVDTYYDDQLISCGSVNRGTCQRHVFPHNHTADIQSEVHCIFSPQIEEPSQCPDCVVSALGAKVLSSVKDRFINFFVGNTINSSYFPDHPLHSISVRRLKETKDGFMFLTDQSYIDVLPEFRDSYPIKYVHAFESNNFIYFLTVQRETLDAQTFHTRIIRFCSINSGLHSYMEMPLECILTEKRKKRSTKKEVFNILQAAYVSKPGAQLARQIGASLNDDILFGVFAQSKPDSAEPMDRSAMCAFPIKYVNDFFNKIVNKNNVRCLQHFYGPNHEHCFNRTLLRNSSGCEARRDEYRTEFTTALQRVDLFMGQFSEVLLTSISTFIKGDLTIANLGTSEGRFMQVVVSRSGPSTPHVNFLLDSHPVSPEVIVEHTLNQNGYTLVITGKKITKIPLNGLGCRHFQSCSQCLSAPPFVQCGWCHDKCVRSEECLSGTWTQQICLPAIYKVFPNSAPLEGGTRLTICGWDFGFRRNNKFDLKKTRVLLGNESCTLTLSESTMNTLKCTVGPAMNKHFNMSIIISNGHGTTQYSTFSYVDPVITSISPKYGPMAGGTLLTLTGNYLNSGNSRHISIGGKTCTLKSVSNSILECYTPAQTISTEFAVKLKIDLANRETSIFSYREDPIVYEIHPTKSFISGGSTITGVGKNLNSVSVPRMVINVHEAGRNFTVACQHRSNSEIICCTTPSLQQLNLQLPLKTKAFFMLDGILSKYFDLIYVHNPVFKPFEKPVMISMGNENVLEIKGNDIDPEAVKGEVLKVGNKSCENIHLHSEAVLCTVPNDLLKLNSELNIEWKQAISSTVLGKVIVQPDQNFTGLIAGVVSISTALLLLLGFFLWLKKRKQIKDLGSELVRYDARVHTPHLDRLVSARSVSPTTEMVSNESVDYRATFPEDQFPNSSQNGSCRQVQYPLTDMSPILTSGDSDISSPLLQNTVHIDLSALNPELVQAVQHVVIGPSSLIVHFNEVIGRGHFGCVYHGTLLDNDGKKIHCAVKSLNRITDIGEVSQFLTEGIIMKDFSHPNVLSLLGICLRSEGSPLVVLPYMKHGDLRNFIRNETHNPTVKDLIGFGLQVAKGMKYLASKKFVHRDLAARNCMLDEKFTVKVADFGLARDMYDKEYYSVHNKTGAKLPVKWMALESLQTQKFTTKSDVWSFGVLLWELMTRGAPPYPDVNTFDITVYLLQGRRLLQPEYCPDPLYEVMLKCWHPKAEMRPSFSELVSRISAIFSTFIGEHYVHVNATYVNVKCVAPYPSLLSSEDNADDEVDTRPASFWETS
Sequence of RON (human) (Q04912 25-1400): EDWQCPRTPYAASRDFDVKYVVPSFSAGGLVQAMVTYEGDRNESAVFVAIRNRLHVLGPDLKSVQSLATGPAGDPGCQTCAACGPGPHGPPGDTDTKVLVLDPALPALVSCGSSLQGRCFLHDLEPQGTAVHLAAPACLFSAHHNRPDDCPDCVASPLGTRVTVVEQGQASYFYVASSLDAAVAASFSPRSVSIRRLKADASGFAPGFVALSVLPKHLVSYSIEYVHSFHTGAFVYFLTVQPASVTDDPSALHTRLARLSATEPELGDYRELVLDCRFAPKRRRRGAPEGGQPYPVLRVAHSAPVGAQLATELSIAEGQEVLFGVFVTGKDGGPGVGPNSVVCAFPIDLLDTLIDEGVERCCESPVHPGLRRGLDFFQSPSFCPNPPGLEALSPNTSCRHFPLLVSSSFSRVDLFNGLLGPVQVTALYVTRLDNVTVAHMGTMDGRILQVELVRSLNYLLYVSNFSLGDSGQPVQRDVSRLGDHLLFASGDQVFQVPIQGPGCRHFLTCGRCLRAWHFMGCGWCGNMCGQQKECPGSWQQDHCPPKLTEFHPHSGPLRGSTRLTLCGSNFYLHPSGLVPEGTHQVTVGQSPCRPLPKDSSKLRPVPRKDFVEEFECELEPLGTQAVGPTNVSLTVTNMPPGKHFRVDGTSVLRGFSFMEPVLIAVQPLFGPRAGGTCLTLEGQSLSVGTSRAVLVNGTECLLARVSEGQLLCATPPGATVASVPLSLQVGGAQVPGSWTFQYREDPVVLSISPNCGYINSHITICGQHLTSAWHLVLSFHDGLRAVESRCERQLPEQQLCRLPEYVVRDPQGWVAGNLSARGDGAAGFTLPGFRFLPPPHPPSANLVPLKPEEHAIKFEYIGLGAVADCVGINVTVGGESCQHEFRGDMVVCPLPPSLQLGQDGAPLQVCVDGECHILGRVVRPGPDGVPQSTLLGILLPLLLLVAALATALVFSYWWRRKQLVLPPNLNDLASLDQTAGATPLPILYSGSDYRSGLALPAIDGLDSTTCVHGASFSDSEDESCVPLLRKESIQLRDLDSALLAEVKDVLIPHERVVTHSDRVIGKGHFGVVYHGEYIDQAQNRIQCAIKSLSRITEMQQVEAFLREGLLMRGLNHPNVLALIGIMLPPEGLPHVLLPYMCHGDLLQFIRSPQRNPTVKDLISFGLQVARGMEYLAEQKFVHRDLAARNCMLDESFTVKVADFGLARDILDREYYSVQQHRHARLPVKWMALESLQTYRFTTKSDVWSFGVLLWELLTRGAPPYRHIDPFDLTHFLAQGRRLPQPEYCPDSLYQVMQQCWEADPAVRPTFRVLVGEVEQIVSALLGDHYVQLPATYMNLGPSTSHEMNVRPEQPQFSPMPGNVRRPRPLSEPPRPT

As usually defined, the IC50 is the concentration that inhibits the measured activity by half. `Nc1ncc(-c2cnn(C3CCNCC3)c2)cc1-c1cc2c(-c3ccccc3)ccc(F)c2cn1` [Example 50, 3-(8-Fluoro-5-phenylisoquinolin-3-yl)-5-(1-piperidin-4-yl-1H-pyrazol-4-yl)-pyridin-2-ylamine]: the IC50 at MET (human) and against RON (human) was 100 to 1000 nM each time.

For `Nc1ncc(-c2cnn(C3CCNCC3)c2)cc1-c1cc2c(-c3cn[nH]c3)ccc(F)c2cn1` [Example 51, 3-[8-Fluoro-5-(1H-pyrazol-4-yl)-isoquinolin-3-yl]-5-(1-piperidin-4-yl-1H-pyrazol-4-yl)-pyridin-2-ylamine trihydrochloride], the IC50 against MET (human) and at RON (human) was no more than 100 nM throughout.

As to `Cn1cc(-c2ccc(F)c3cnc(-c4cc(-c5cnn(C6CCNCC6)c5)cnc4N)cc23)cn1` [Example 52, 3-[8-Fluoro-5-(1-methyl-1H-pyrazol-4-yl)-isoquinolin-3-yl]-5-(1-piperidin-4-yl-1H-pyrazol-4-yl)-pyridin-2-ylamine trihydrochloride], the IC50 at MET (human) and against RON (human) was no more than 100 nM each time.

Take `Nc1ncc(-c2cnn(C3CCNCC3)c2)cc1-c1cc2c(-c3ccc[nH]3)ccc(F)c2cn1` [Example 53, 3-[8-Fluoro-5-(1H-pyrrol-2-yl)-isoquinolin-3-yl]-5-(1-piperidin-4-yl-1H-pyrazol-4-yl)-pyridin-2-ylamine]: the IC50 against MET (human) and against RON (human) was 100 to 1000 nM in each case.

On to `Nc1ncc(-c2cnn(C3CCNCC3)c2)cc1-c1cc2c(-c3cccnc3)ccc(F)c2cn1` [Example 54, 3-(8-Fluoro-5-pyridin-3-ylisoquinolin-3-yl)-5-(1-piperidin-4-yl-1H-pyrazol-4-yl)-pyridin-2-ylamine trihydrochloride pyridin-2-ylamine trihydrochloride], for which the IC50 at MET (human) lay in the range of 100 to 1000 nM; against RON (human) it was 1000 to 20000 nM.

For `Nc1ncc(-c2cnn(C3CCNCC3)c2)cc1-c1cc2c(-c3nccs3)ccc(F)c2cn1` [Example 55, 3-(8-Fluoro-5-thiazol-2-ylisoquinolin-3-yl)-5-(1-piperidin-4-yl-1H-pyrazol-4-yl)-pyridin-2-ylamine trihydrochloride], the IC50 against MET (human) lay within 100 to 1000 nM; against RON (human) it was 1000 to 20000 nM.

For `Nc1ncc(-c2cnn(C3CCNCC3)c2)cc1-c1cc2c(-c3cncs3)ccc(F)c2cn1` [Example 56, 3-(8-Fluoro-5-thiazol-5-ylisoquinolin-3-yl)-5-(1-piperidin-4-yl-1H-pyrazol-4-yl)-pyridin-2-ylamine trihydrochloride], the IC50 against MET (human) and on RON (human) was 100 to 1000 nM in each case.

For `Nc1ncc(-c2cnn(C3CCN(C=O)CC3)c2)cc1-c1cc2c(Cl)ccc(F)c2cn1` [Example 57, 4-4-[6-Amino-5-(5-chloro-8-fluoroisoquinolin-3-yl)-pyridin-3-yl]-pyrazol-1-ylpiperidine-1-carbaldehyde], the IC50 on MET (human) fell in the range of 100 to 1000 nM; on RON (human) it was 1000 to 20000 nM.

As for `CN1CCC(n2cc(-c3cnc(N)c(-c4cc5c(Cl)ccc(F)c5cn4)c3)cn2)CC1` [Example 58, 3-(5-Chloro-8-fluoroisoquinolin-3-yl)-5-[1-(1-methylpiperidin-4-yl)-1H-pyrazol-4-yl]-pyridin-2-ylamine], the IC50 on MET (human) and against RON (human) was 100 to 1000 nM throughout.

`CN1CCN(c2ncc(-c3cnc(N)c(-c4cc5c(Cl)ccc(F)c5cn4)c3)s2)CC1` [Example 60, 3-(5-Chloro-8-fluoroisoquinolin-3-yl)-5-[2-(4-methylpiperazin-1-yl)-thiazol-5-yl]-pyridin-2-ylamine trihydrochloride]: the IC50 against MET (human) and at RON (human) was 1000 to 20000 nM in each case.

Take `Nc1ncc(-c2cnc(N3CCOCC3)s2)cc1-c1cc2c(Cl)ccc(F)c2cn1` [Example 61, 3-(5-Chloro-8-fluoroisoquinolin-3-yl)-5-(2-morpholin-4-ylthiazol-5-yl)-pyridin-2-ylamine]: the IC50 against MET (human) and on RON (human) was greater than 20000 nM in each case.

For `Nc1ncc(-c2cnn([C@@H]3CCNC3)c2)cc1-c1cc2c(Cl)ccc(F)c2cn1` [Example 62, 3-(5-Chloro-8-fluoroisoquinolin-3-yl)-5-((R)-1-pyrrolidin-3-yl-1H-pyrazol-4-yl)-pyridin-2-ylamine trihydrochloride], the IC50 against MET (human) and at RON (human) was 100 to 1000 nM throughout.

Regarding `Nc1ncc(-c2cnn([C@H]3CCNC3)c2)cc1-c1cc2c(Cl)ccc(F)c2cn1` [Example 63, 3-(5-Chloro-8-fluoroisoquinolin-3-yl)-5-((S)-1-pyrrolidin-3-yl-1H-pyrazol-4-yl)-pyridin-2-ylamine trihydrochloride], the IC50 against MET (human) and at RON (human) was 100 to 1000 nM in each case.

In the case of `CN1C2CCC1CC(n1cc(-c3cnc(N)c(-c4cc5c(Cl)ccc(F)c5cn4)c3)cn1)C2` (stereo not shown) [Example 64, 3-(5-Chloro-8-fluoroisoquinolin-3-yl)-5-[1-(8-methyl-8-azabicyclo [3.2.1]-oct-3-yl)-1H-pyrazol-4-yl]-pyridin-2-ylamine], the IC50 at MET (human) and against RON (human) was 100 to 1000 nM throughout.

For `Cn1cc(-c2cnc(N)c(-c3cc4c(Cl)ccc(F)c4cn3)c2)cn1` [Example 65, 3-(5-Chloro-8-fluoroisoquinolin-3-yl)-5-(1-methyl-1H-pyrazol-4-yl)-pyridin-2-ylamine bis-hydrochloride], the IC50 against MET (human) and against RON (human) was 1000 to 20000 nM throughout.

For `CC(C)n1cc(-c2cnc(N)c(-c3cc4c(Cl)ccc(F)c4cn3)c2)cn1` [Example 66, 3-(5-Chloro-8-fluoroisoquinolin-3-yl)-5-(1-isopropyl-1H-pyrazol-4-yl)-pyridin-2-ylamine bis-hydrochloride], the IC50 against MET (human) and against RON (human) was 1000 to 20000 nM throughout.

On to `CN(C)C(=O)N1CCC(n2cc(-c3cnc(N)c(-c4cc5c(Cl)ccc(F)c5cn4)c3)cn2)CC1` [Example 67, 4-4-[6-Amino-5-(5-chloro-8-fluoroisoquinolin-3-yl)-pyridin-3-yl]-pyrazol-1-ylpiperidine-1-carboxylic acid dimethylamide bis-hydrochloride], for which the IC50 on MET (human) and on RON (human) was 100 to 1000 nM each time.

Consider `NC(=O)N1CCC(n2cc(-c3cnc(N)c(-c4cc5c(Cl)ccc(F)c5cn4)c3)cn2)CC1` [Example 68, 4-4-[6-Amino-5-(5-chloro-8-fluoroisoquinolin-3-yl)-pyridin-3-yl]-pyrazol-1-ylpiperidine-1-carboxamide bis-hydrochloride], for which the IC50 at MET (human) and against RON (human) was 100 to 1000 nM each time.

Consider `Nc1ncc(-c2cnn(C3CCN(CC(F)(F)F)CC3)c2)cc1-c1cc2c(Cl)ccc(F)c2cn1` [Example 69, 3-(5-Chloro-8-fluoroisoquinolin-3-yl)-5-1-[1-(2,2,2-trifluoroethyl)-piperidin-4-yl]-1H-pyrazol-4-yl-pyridin-2-ylamine bis-hydrochloride], for which the IC50 on MET (human) and on RON (human) was 1000 to 20000 nM throughout.

On to `COCCN1CCC(n2cc(-c3cnc(N)c(-c4cc5c(Cl)ccc(F)c5cn4)c3)cn2)CC1` [Example 70, 3-(5-Chloro-8-fluoroisoquinolin-3-yl)-5-1-[1-(2-methoxyethyl)-piperidin-4-yl]-1H-pyrazol-4-yl-pyridin-2-ylamine], for which the IC50 against MET (human) fell in the range of 100 to 1000 nM; against RON (human), 1000 to 20000 nM.

Consider `CN(C)C(=O)[C@@H]1C[C@H](n2cc(-c3cnc(N)c(-c4cc5c(Cl)ccc(F)c5cn4)c3)cn2)CN1` [Example 71, (2S,4S)-4-{4-[6-Amino-5-(5-chloro-8-fluoroisoquinolin-3-yl)-pyridin-3-yl]-pyrazol-1-yl}-pyrrolidine-2-carboxylic acid dimethylamide], for which the IC50 is no more than 100 nM against MET (human) and 100 to 1000 nM at RON (human).

Consider `Nc1ncc(-c2cnn([C@@H]3CN[C@H](C(=O)N4CCOCC4)C3)c2)cc1-c1cc2c(Cl)ccc(F)c2cn1` [Example 72, ((2S,4S)-4-{4-[6-Amino-5-(5-chloro-8-fluoroisoquinolin-3-yl)-pyridin-3-yl]-pyrazol-1-yl}-pyrrolidin-2-yl)-morpholin-4-ylmethanone], for which the IC50 at MET (human) is no more than 100 nM; on RON (human) it was 100 to 1000 nM.

`Nc1ncc(-c2cnn([C@@H]3CN[C@H](C(=O)N4CCCC4)C3)c2)cc1-c1cc2c(Cl)ccc(F)c2cn1` [Example 73, ((2S,4S)-4-{4-[6-Amino-5-(5-chloro-8-fluoroisoquinolin-3-yl)-pyridin-3-yl]-pyrazol-1-yl}-pyrrolidin-2-yl)-pyrrolidin-1-ylmethanone]: the IC50 at MET (human) and against RON (human) was 100 to 1000 nM throughout.
